In the supplement of paper PMC10307832:

How the values were obtained:
Assay in all cases: relative viability (nuclei count vs DMSO), 5 days (fraction); higher = more cells survive
Neratinib + Alpelisib = compound: CCOc1cc2ncc(C#N)c(Nc3ccc(OCc4ccccn4)c(Cl)c3)c2cc1NC(=O)/C=C/CN(C)C [Neratinib] + Cc1nc(NC(=O)N2CCC[C@H]2C(N)=O)sc1-c1ccnc(C(C)(C)C(F)(F)F)c1 [Alpelisib] (partner 2 µM)
In short: (§1)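 Relative viability is defined as nuclei in treated wells over nuclei in vehicle wells. Duplicate plates were run and medians reported. Lung cancer cell lines in 1536-well plates were dosed by pin tool one day after seeding, with one drug or with a fixed anchor-drug dose plus five library-drug doses (not always all listed) in √10 steps, and nuclei were counted after 5 days.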

Neratinib + Pictilisib = compound: CCOc1cc2ncc(C#N)c(Nc3ccc(OCc4ccccn4)c(Cl)c3)c2cc1NC(=O)/C=C/CN(C)C [Neratinib] + CS(=O)(=O)N1CCN(Cc2cc3nc(-c4cccc5[nH]ncc45)nc(N4CCOCC4)c3s2)CC1 [Pictilisib] (partner 1 µM)
In short: as §1

Neratinib + AZD7762 = compound: CCOc1cc2ncc(C#N)c(Nc3ccc(OCc4ccccn4)c(Cl)c3)c2cc1NC(=O)/C=C/CN(C)C [Neratinib] + NC(=O)Nc1cc(-c2cccc(F)c2)sc1C(=O)N[C@H]1CCCNC1 [AZD7762] (partner 0.2 µM)
In short: as §1

Neratinib + Phenformin = compound: CCOc1cc2ncc(C#N)c(Nc3ccc(OCc4ccccn4)c(Cl)c3)c2cc1NC(=O)/C=C/CN(C)C [Neratinib] + N=C(N)NC(=N)NCCc1ccccc1 [Phenformin] (partner 250 µM)
In short: as §1

Cell Line: NCI-H2085
- relative viability (Neratinib + Alpelisib; first compound 0.01 µM): 1.02
- relative viability (Neratinib + Alpelisib; first compound 0.1 µM): 0.778
- relative viability (Neratinib + Alpelisib; first compound 0.3162 µM): 0.7
- relative viability (Neratinib + Alpelisib; first compound 1 µM): 0.549
- relative viability (Neratinib + Pictilisib; first compound 0.01 µM): 0.526
- relative viability (Neratinib + Pictilisib; first compound 0.03162 µM): 0.436
- relative viability (Neratinib + Pictilisib; first compound 0.1 µM): 0.462
- relative viability (Neratinib + Pictilisib; first compound 0.3162 µM): 0.408
- relative viability (Neratinib + Pictilisib; first compound 1 µM): 0.373
- relative viability (Neratinib + AZD7762; first compound 0.01 µM): 0.924
- relative viability (Neratinib + AZD7762; first compound 0.03162 µM): 1.04
- relative viability (Neratinib + AZD7762; first compound 0.1 µM): 0.933
- relative viability (Neratinib + AZD7762; first compound 0.3162 µM): 0.746
- relative viability (Neratinib + Phenformin; first compound 0.01 µM): 0.795
- relative viability (Neratinib + Phenformin; first compound 0.03162 µM): 0.683
- relative viability (Neratinib + Phenformin; first compound 0.1 µM): 0.708
- relative viability (Neratinib + Phenformin; first compound 0.3162 µM): 0.567
- relative viability (Neratinib + Phenformin; first compound 1 µM): 0.437

Cell Line: NCI-H2087
- relative viability (Neratinib + Alpelisib; first compound 0.01 µM): 1.15
- relative viability (Neratinib + Alpelisib; first compound 0.03162 µM): 1.11
- relative viability (Neratinib + Alpelisib; first compound 0.3162 µM): 1.05
- relative viability (Neratinib + Pictilisib; first compound 0.01 µM): 0.989
- relative viability (Neratinib + Pictilisib; first compound 0.03162 µM): 0.899
- relative viability (Neratinib + Pictilisib; first compound 0.3162 µM): 0.799
- relative viability (Neratinib + Pictilisib; first compound 1 µM): 0.492
- relative viability (Neratinib + AZD7762; first compound 0.01 µM): 1.36
- relative viability (Neratinib + AZD7762; first compound 0.03162 µM): 1.29
- relative viability (Neratinib + AZD7762; first compound 0.1 µM): 0.985
- relative viability (Neratinib + AZD7762; first compound 0.3162 µM): 1.24
- relative viability (Neratinib + AZD7762; first compound 1 µM): 0.694
- relative viability (Neratinib + Phenformin; first compound 0.01 µM): 0.493
- relative viability (Neratinib + Phenformin; first compound 0.03162 µM): 0.567
- relative viability (Neratinib + Phenformin; first compound 0.1 µM): 0.391
- relative viability (Neratinib + Phenformin; first compound 0.3162 µM): 0.415
- relative viability (Neratinib + Phenformin; first compound 1 µM): 0.234

Cell Line: NCI-H2126
- relative viability (Neratinib + Alpelisib; first compound 0.01 µM): 0.829
- relative viability (Neratinib + Alpelisib; first compound 0.03162 µM): 0.723
- relative viability (Neratinib + Alpelisib; first compound 0.1 µM): 0.724
- relative viability (Neratinib + Alpelisib; first compound 0.3162 µM): 0.679
- relative viability (Neratinib + Alpelisib; first compound 1 µM): 0.382
- relative viability (Neratinib + Pictilisib; first compound 0.03162 µM): 0.495
- relative viability (Neratinib + Pictilisib; first compound 0.1 µM): 0.431
- relative viability (Neratinib + Pictilisib; first compound 0.3162 µM): 0.414
- relative viability (Neratinib + Pictilisib; first compound 1 µM): 0.365
- relative viability (Neratinib + AZD7762; first compound 0.01 µM): 1.07
- relative viability (Neratinib + AZD7762; first compound 0.03162 µM): 0.999
- relative viability (Neratinib + AZD7762; first compound 0.1 µM): 0.873
- relative viability (Neratinib + AZD7762; first compound 0.3162 µM): 1
- relative viability (Neratinib + AZD7762; first compound 1 µM): 0.741
- relative viability (Neratinib + Phenformin; first compound 0.01 µM): 0.534
- relative viability (Neratinib + Phenformin; first compound 0.03162 µM): 0.535
- relative viability (Neratinib + Phenformin; first compound 0.1 µM): 0.487
- relative viability (Neratinib + Phenformin; first compound 0.3162 µM): 0.484
- relative viability (Neratinib + Phenformin; first compound 1 µM): 0.381

Cell Line: NCI-H2170
- relative viability (Neratinib + Alpelisib; first compound 0.01 µM): 0.619
- relative viability (Neratinib + Alpelisib; first compound 0.03162 µM): 0.383
- relative viability (Neratinib + Alpelisib; first compound 0.1 µM): 0.314
- relative viability (Neratinib + Alpelisib; first compound 0.3162 µM): 0.21
- relative viability (Neratinib + Alpelisib; first compound 1 µM): 0.265
- relative viability (Neratinib + Pictilisib; first compound 0.01 µM): 0.314
- relative viability (Neratinib + Pictilisib; first compound 0.03162 µM): 0.253
- relative viability (Neratinib + Pictilisib; first compound 0.1 µM): 0.206
- relative viability (Neratinib + Pictilisib; first compound 0.3162 µM): 0.189
- relative viability (Neratinib + Pictilisib; first compound 1 µM): 0.256
- relative viability (Neratinib + AZD7762; first compound 0.01 µM): 0.816
- relative viability (Neratinib + AZD7762; first compound 0.03162 µM): 0.549
- relative viability (Neratinib + AZD7762; first compound 0.1 µM): 0.515
- relative viability (Neratinib + AZD7762; first compound 0.3162 µM): 0.177
- relative viability (Neratinib + AZD7762; first compound 1 µM): 0.159
- relative viability (Neratinib + Phenformin; first compound 0.01 µM): 0.419
- relative viability (Neratinib + Phenformin; first compound 0.03162 µM): 0.418
- relative viability (Neratinib + Phenformin; first compound 0.1 µM): 0.269
- relative viability (Neratinib + Phenformin; first compound 0.3162 µM): 0.268
- relative viability (Neratinib + Phenformin; first compound 1 µM): 0.216

Cell Line: NCI-H2347
- relative viability (Neratinib + Alpelisib; first compound 0.01 µM): 1.1
- relative viability (Neratinib + Alpelisib; first compound 0.03162 µM): 1.11
- relative viability (Neratinib + Alpelisib; first compound 0.1 µM): 1.02
- relative viability (Neratinib + Alpelisib; first compound 0.3162 µM): 0.935
- relative viability (Neratinib + Alpelisib; first compound 1 µM): 0.9
- relative viability (Neratinib + Pictilisib; first compound 0.01 µM): 0.603
- relative viability (Neratinib + Pictilisib; first compound 0.03162 µM): 0.547
- relative viability (Neratinib + Pictilisib; first compound 0.1 µM): 0.503
- relative viability (Neratinib + Pictilisib; first compound 0.3162 µM): 0.582
- relative viability (Neratinib + Pictilisib; first compound 1 µM): 0.524
- relative viability (Neratinib + AZD7762; first compound 0.01 µM): 0.727
- relative viability (Neratinib + AZD7762; first compound 0.03162 µM): 0.733
- relative viability (Neratinib + AZD7762; first compound 0.1 µM): 0.533
- relative viability (Neratinib + AZD7762; first compound 0.3162 µM): 0.756
- relative viability (Neratinib + AZD7762; first compound 1 µM): 0.457
- relative viability (Neratinib + Phenformin; first compound 0.01 µM): 0.416
- relative viability (Neratinib + Phenformin; first compound 0.03162 µM): 0.565
- relative viability (Neratinib + Phenformin; first compound 0.3162 µM): 0.338
- relative viability (Neratinib + Phenformin; first compound 1 µM): 0.244
